Measured values as given in BindingDB's records for doi:10.1021/jm00076a003 (Eisai, 1994).

What follows are compounds tested against cGMP-specific 3',5'-cyclic phosphodiesterase (PDE5A) (Sus scrofa) (assay: Inhibitory activity against cyclic GMP-phosphodiesterase (PDE V) isolated from porcine aorta.).

SMILES	IC50
COc1cc2c(=O)n(CCc3ccc4c(c3)OCO4)cnc2c(OC)c1OC [3-(2-Benzo[1,3]dioxol-5-yl-ethyl)-6,7,8-trimethoxy-3H-quinazolin-4-one]	32000 nM
COc1cc2c(NCCCCCO)ncnc2c(OC)c1OC [5-(6,7,8-Trimethoxy-quinazolin-4-ylamino)-pentan-1-ol]	5500 nM
CCCc1c(OCc2ccc3c(c2)OCO3)ccc2c(=O)cc(C(=O)O)oc12 [7-(Benzo[1,3]dioxol-5-ylmethoxy)-4-oxo-8-propyl-4H-chromene-2-carboxylic acid]	650 nM
COc1cc(CNc2ncnc3c(OC)c(OC)c(OC)cc23)cc(OC)c1OC [(3,4,5-Trimethoxy-benzyl)-(6,7,8-trimethoxy-quinazolin-4-yl)-amine]	8900 nM
COc1cc2c(NCc3cccc([N+](=O)[O-])c3)ncnc2c(OC)c1OC [(3-Nitro-benzyl)-(6,7,8-trimethoxy-quinazolin-4-yl)-amine]	3500 nM
COc1ccc(CNc2ncnc3c(OC)c(OC)c(OC)cc23)cc1 [(4-Methoxy-benzyl)-(6,7,8-trimethoxy-quinazolin-4-yl)-amine]	1000 nM
COc1cc2c(NCc3ccc([N+](=O)[O-])cc3)ncnc2c(OC)c1OC [(4-Nitro-benzyl)-(6,7,8-trimethoxy-quinazolin-4-yl)-amine]	> 100000 nM
COc1cc2c(NCc3ccccc3)ncnc2c(OC)c1OC [Benzyl-(6,7,8-trimethoxy-quinazolin-4-yl)-amine]	2000 nM

Further lines, results first:

IC50	SMILES
1500 nM	CCCc1c(OCCCOc2ccc3c(=O)cc(C(=O)O)oc3c2CCC)ccc(C(C)=O)c1O [7-[3-(4-Acetyl-3-hydroxy-2-propyl-phenoxy)-propoxy]-4-oxo-8-propyl-4H-chromene-2-carboxylic acid]
780 nM	COc1cc2c(NCc3ccc4c(c3)OCCO4)ncnc2c(OC)c1OC [(2,3-Dihydro-benzo[1,4]dioxin-6-ylmethyl)-(6,7,8-trimethoxy-quinazolin-4-yl)-amine]
> 100000 nM	COc1cc(OC)c(CNc2ncnc3c(OC)c(OC)c(OC)cc23)c(OC)c1 [(2,4,6-Trimethoxy-benzyl)-(6,7,8-trimethoxy-quinazolin-4-yl)-amine]
1300 nM	COc1cc2c(NCc3cccc(Cl)c3)ncnc2c(OC)c1OC [(3-Chloro-benzyl)-(6,7,8-trimethoxy-quinazolin-4-yl)-amine]
1700 nM	COc1cccc(CNc2ncnc3c(OC)c(OC)c(OC)cc23)c1 [(3-Methoxy-benzyl)-(6,7,8-trimethoxy-quinazolin-4-yl)-amine]
1300 nM	COc1cc2c(NCc3ccc(Cl)cc3)ncnc2c(OC)c1OC [(4-Chloro-benzyl)-(6,7,8-trimethoxy-quinazolin-4-yl)-amine]
4000 nM	COc1cc2c(NCc3ccco3)ncnc2c(OC)c1OC [Furan-2-ylmethyl-(6,7,8-trimethoxy-quinazolin-4-yl)-amine]
1900 nM	COc1cc2c(NCc3ccc4c(c3)CCC4)ncnc2c(OC)c1OC [Indan-5-ylmethyl-(6,7,8-trimethoxy-quinazolin-4-yl)-amine]
